Source: US20240025886A1, “INHIBITORS OF IGF2BP1-RNA BINDING” (YISSUM RESEARCH DEVELOPMENT COMPANY OF THE HEBREW …, priority 2020, published 2024)
Several values for one entry are separate records, joined by “and”; a condition that tells them apart may be missing. Equal entries are not always repeated.

Key:
[1] = molecular target: Igf2bp1-cMyc RNA interaction (Homo sapiens, UniProt Q9NZI8); details: fluorescence polarization; cited from earlier work
[2] = system: H1299 cells; experiment: Wound healing (cell migration) assay, H1299 cells; type: cell-based, human; details: H1299 cells; 10 μM compound 15 vs 20 μM 7773 in FIGS. 20A-B
Description: Cells were seeded in 96 IncuCyte® ImageLock plates (20×10^3 cells per well) for 24 hours, to a near confluency of 95%, before the addition of increasing concentrations of compound. After a further 24 hours, wells were scratched using the IncuCyte® 96-well WoundMaker Tool, and the cells cultured for an additional 48 hours using the IncuCyte® S3 Live-Cell Analysis System (Essen BioScience). The plate was imaged at increments of 120 minutes for a period of 48 hours, and then analyzed for relative wound healing.

[3] = Cell proliferation, compound 15 (cell line not stated); type: cell-based
[4] = molecular target: T1, Igf2bp1 binding to Kras 6 RNA (Homo sapiens, UniProt Q9NZI8); experiment: Fluorescence polarization (FP) assay of Igf2bp1 binding to fluorescent Kras 6 RNA; details: FP dose response; read-out: IC50 for inhibition of Igf2bp1 binding to Kras 6 RNA
T1 construct: Recombinant full-length Igf2bp1 protein; made in house; host or cells: E. coli BL21(DE3)
Description: For the small molecule screen, compounds were obtained from the collection maintained at the Grand Israel National Center for Personalized Medicine, consisting of molecules purchased from commercial vendors. Labelled RNA (10 nM) was incubated with recombinant Igf2bp1 protein (400 nM) in FAM-RNA buffer (10 mM Tris pH 8.0, 75 mM KCl, 0.5 mM EDTA, 1 mM DTT, 0.0188 U/μL RNAsin, 0.0005 μg/mL heparin, 0.0001 μg/μL tRNA, 0.01% Triton X-100, 3 mM MgCl2, 0.05% IGEPAL) at room temperature for 15 min. […] of this reaction mix was aliquoted with GNF WDII (USA) into wells of 1536 well plates, with a final concentration of […] compound or DMSO. The plates were spun down and read in a BMG Pherastar FS (Germany) plate reader plate reader, in FP mode with a 485/520/520 polarization filter, calibrated to 35 mP for free fluorescein with similar total intensity as experimental samples. […]
To determine the quality of the inventors screening assay, the Z′ factor for each plate was calculated with a Z′ factor greater than 0.5 indicating a robust assay suitable for high throughput screening. Compounds that altered the overall fluorescence intensity compared to controls were considered auto florescence and excluded from further analysis. […] Any small molecule that causes a change of more than three standard deviations from the mean is determined appropriate for further investigation.

[5] = molecular target: T2, Igf2bp1 (Homo sapiens, UniProt Q9NZI8); experiment: Microscale thermophoresis (MST) binding to full-length Igf2bp1; details: MST
T2 construct: Recombinant full-length Igf2bp1 protein; made in house; host or cells: E. coli BL21(DE3)
Description: Recombinant full-length Igf2bp1 protein was labelled with RED-tris-NTA dye using a Monolith NT His-Tag Labelling Kit (NanoTemper) while RRM12, KH12 and KH34 di-domain peptides were labelled using the Protein Labeling Kit RED NHS 2nd generation (NanoTemper). Labelled proteins were spun at 15,000 g for 5 min to eliminate aggregates. All samples were 2× labelled protein mix of Igf2bp1 (200 nM) in PBST and were combined (1:1) with serial dilutions of compound or Kras6 RNA in binding buffer (10 mMTris pH=7.5, 100 mM NaCl, 0.1 mM EDTA, 0.06% IPEGAL, 0.02 μg/μL tRNA, 2 mM DTT, 0.1 μg/μL heparin) in final volume of 20 μL, room temperature for 15 min. Samples were then loaded into standard capillaries (NanoTemper) and read in the Monolith NT.115 scanner (NanoTemper) using the red filter with reading conditions of 95% LED power and 40% MST power, 5 sec fluorescence before, 30 sec MST on, 5 sec fluorescence after and 25 sec delay between samples. Results were analyzed using the MO Control software (NanoTemper) for curve fitting to KD.

[6] = molecular target: T1, Igf2bp1 binding to Kras 6 RNA; experiment: EMSA, Igf2bp1 with fluorescent Kras 6 RNA; design: dose or concentration left out as unconfirmed
Description: Recombinant Igf2bp1 protein was serially diluted (1:1) starting at an initial concentration of 10,000 nM in 0.75 μg heparin, in a total volume of 13 μL. Fluorescently labelled Kras 6 RNA (750 nM) diluted in reaction buffer (10 mM Tris pH 7.5, 100 mM NaCl, 0.1 mM EDTA, 1 mg/mL tRNA, 0.25% IGEPAL (Sigma), 0.5 mM DTT) was heated to 65° C. for 5 minutes, kept on ice for 1 minute and RNasin (200 U/mL) (ThermoScientific, RiboLock RNase inhibitor) was then added. […] RNA was added to each well protein sample, and after a 30 min incubation at room temperature in the dark, loading dye (3 μL) (30% glycerol, 0.01% bromocresol green) was added to each mixture. For compound inhibition experiments, compounds or DMSO were incubated for 4 hours at 37° C. with the protein prior to adding the RNA. Samples were electrophoresed on native TBE polyacrylamide gels (6% acrylamide/bis-acrylamide 37.5:1, 0.5×TBE) that had been pre-run for 30 min. Gels were run at 120V in 0.5×TBE, at 4° C. in the dark. They were then carefully washed and scanned using a Typhoon FLA9500 imager using Alexa 488 laser and LPB1/2 filter. Igf2bp1-RNA complex formation was quantified using the ImageJ software. Prism6 software was used for curve fitting and KD calculations.

[7] = molecular target: T3, La protein (UniProt P05455 P05455:1-408); experiment: EMSA; not affected by 7773; details: label: 5'-6FAM
T3 sequence: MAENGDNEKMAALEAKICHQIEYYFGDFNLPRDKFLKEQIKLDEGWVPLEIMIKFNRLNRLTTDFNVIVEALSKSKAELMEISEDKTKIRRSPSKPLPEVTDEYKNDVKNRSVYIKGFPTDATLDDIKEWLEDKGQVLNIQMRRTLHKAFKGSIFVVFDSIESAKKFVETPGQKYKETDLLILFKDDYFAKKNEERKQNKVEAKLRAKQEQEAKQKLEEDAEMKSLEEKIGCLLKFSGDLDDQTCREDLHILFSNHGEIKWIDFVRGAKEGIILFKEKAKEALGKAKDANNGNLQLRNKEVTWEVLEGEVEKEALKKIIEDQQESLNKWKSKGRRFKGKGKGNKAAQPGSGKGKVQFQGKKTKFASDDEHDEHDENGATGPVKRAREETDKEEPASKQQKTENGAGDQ

T1 sequence (Q9NZI8 whole entry): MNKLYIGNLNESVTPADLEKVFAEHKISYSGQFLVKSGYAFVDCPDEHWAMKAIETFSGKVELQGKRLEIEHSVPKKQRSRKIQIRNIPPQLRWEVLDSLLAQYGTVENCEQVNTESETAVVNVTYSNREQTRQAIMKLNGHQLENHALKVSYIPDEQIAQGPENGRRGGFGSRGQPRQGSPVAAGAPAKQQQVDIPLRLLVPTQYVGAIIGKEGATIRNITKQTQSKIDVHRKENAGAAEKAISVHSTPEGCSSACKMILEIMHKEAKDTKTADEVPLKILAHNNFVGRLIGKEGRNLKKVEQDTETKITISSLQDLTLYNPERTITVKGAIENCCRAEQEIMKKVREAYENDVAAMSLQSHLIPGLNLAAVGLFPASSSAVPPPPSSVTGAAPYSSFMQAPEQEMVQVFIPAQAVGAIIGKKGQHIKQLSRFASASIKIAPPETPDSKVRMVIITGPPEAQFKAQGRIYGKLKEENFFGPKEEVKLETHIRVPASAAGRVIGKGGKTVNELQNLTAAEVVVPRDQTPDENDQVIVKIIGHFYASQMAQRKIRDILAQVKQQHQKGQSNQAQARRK
T2 sequence (Q9NZI8 whole entry): as above
Sequence of Igf2bp1-cMyc RNA interaction (Q9NZI8 whole entry): as above

Molecule: NC(=O)c1ccccc1N=Cc1ccc(Br)s1 [BTYNB]
- Igf2bp1-cMyc RNA interaction in vitro [1]: inhibited

Molecule: O=C(c1ccc(Cn2c(CO)cc3ccccc32)cc1)N1CCN(c2ccc3c(c2)OCO3)CC1 [Compound 15]
- Efficiency at inhibiting wound healing compared to Compound 7773 [2]: over 10 fold
- Cell proliferation [3]: inhibition of cell proliferation

Molecule: O=C(c1cccc(-n2cnnn2)c1)N1CCCC(Nc2ccc3c(c2)OCO3)C1 (stereo not shown) [Compound 393, reference compound]
- IC50 [4]: ~90 µM and > 100 µM
- Affinity for Igf2bp1 relative to 7773 [5]: approximately seven times lower affinity
- Inhibition of Igf2bp1 binding to Kras 6 RNA (gel shift) [6]: lower, but observable, inhibition of RNA binding

B1: Bcl2 RNA oligo (ssRNA)
RNA: CCCGUUGCUUUUCCUCUGGGAAGGAUGGCGCACGCUGGG
- binding result [7]: binds
